Reference: patent publication EP0656355A1, “BIPHENYLMETHANE DERIVATIVE AND MEDICINE CONTAINING THE SAME” (WAKUNAGA SEIYAKU KABUSHIKI KAISHA, priority 1992, dated 1994)

Legend:
[1] = tested on: angiotensin II contraction in longitudinal ileac muscles; assay: Inhibitory activity to angiotensin II contraction in longitudinal ileac muscles excised from a guinea pig; format: cell-based, Hartley male guinea pig; details: Cavia porcellus, 20 min; 50% contraction inhibition concentration; 10⁻⁸M angiotensin II; test compound reacted for 20 minutes; guinea pig ileum longitudinal muscle; read-out: IC₅₀
Description: (2) Inhibitory activity to angiotensin II contraction in longitudinal ileac muscles excised from a guinea pig
A Hartley male guinea pig (350-450 g in weight) was sacrificed under exsanguination, followed by the excision of its ileum.
A longitudinal muscle tissue (2 cm long) was prepared from the ileum in a manner known per se in the art. The sample was suspended in a 20-mℓ Magnus cylinder filled with a Tylode solution [composition (mM): NaCℓ 137, KCℓ 2.7, CaCℓ₂ 1.88, MgCℓ₂ 1.1, NaH₂PO₄ 0.4, NaH₂CO₃ 11.8 and glucose 5.6). The Tylode solution was incubated at 37°C and saturated with a mixed gas consisting of 95% O₂ + 5% CO₂. Using an isometric transducer ("TB-611T", manufactured by Nihon Kohden Corporation), variations in contraction were measured. The measurement results were recorded on a computer ("PC-9801", manufactured by NEC Corporation).
Under a load of 0.5 g initial tension, the longitudinal muscle sample was equilibrated in a nutrient solution for about one hour while being washed therewith at intervals of 15 minutes. Then, contracture by the administration of 80 mM of KCℓ was repeated twice. After conforming that the contraction occurred stably, the following test was conducted.
First, 10^-8M angiotensin II was administered to the sample and its maximum contraction was recorded. The test compound was then administered to the sample and they were reacted for 20 minutes. Administered again was 10⁻⁸M angiotensin II and the maximum contraction was measured. […] This test was repeated at increased concentrations of the test compound. A 50% contraction inhibition concentration (IC₅₀) was determined in accordance with a linear regressive calculation of the contraction inhibition rates.

[2] = molecular target: T1, angiotensin II (AII) receptor (Rattus norvegicus, UniProt P25095); assay: Inhibitory action against the binding with angiotensin II (AII) receptor, 125I-AII competition on cultured rat aortic smooth muscle cells; design: species or system male Wistar rat; details: 50% substitution of ¹²⁵I-AII specific binding; ¹²⁵I-AII 2 x 10⁻¹⁰M; one hour at room temperature; rat vascular smooth muscle cells; read-out: IC₅₀
T1 construct: Vascular smooth muscle cells, which had been separated from the aorta of a male Wistar rat and cultured on a 24-well multiplate; endogenous in cells; host or cells: primary cultured vascular smooth muscle cells from the aorta of a male Wistar rat
T1 sequence (P25095 1-359): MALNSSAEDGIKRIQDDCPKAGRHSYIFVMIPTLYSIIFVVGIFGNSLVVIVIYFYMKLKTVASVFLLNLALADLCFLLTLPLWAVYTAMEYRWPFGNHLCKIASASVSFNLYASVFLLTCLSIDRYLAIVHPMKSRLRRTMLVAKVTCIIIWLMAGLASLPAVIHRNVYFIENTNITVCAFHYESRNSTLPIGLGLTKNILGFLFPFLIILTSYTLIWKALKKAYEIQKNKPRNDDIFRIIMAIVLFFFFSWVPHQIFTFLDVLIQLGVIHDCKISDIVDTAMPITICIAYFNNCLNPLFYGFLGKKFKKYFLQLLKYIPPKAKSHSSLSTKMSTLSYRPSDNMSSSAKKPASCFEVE
Description: (1) Inhibitory action against the binding with angiotensin II (AII) receptor, using cultured rat aortic smooth muscle cells The present test was conducted in accordance with the method reported by Chiu et al. in European Journal of Pharmacology, 157, 13-21(1988), though after some modifications. […] To each well, ¹²⁵I-AII (final concentration: 2 x 10⁻¹⁰M) was added together with or without a test compound to give a total volume of 0.2 mℓ. Then the wells were incubated for one hour at room temperature to make the ¹²⁵I-AII and the test compound competitively bind to the vascular smooth muscle cells. Each well was thereafter washed with an ice-cold buffer three times to remove unbound ¹²⁵I-AII. To the cells, 0.2 mℓ of a 1 mol/ℓ solution of sodium hydroxide was added to solubilize the bound ¹²⁵I-AII. A bound amount of ¹²⁵I-AII contained in the resulting cell solution was measured by a gamma counter. The above test was conducted for each compound at different concentrations of 3 doses or more. The inhibition rate against the specific binding with ¹²⁵I-AII at each concentration was calculated in accordance with an equation to be set out subsequently herein.

## CCCCc1nnc(N(Cc2ccc(-c3ccccc3-c3nn[nH]n3)cc2)C(=O)CCC)s1 [Compound No.14, 2-[N-Butyryl-N-(2'-(1H-tetrazol-5-yl)biphenyl-4-yl)methyl]amino-5-n-butyl-1,3,4-thiadiazole]
[1]
  IC50: 0.036 µM
[2]
  IC50: 0.0098 µM

## CCc1nn(Cc2ccc(-c3ccccc3-c3nnn[nH]3)cc2)c(=NC(=O)c2ccccc2Cl)s1 [Compound No.68, 2-(2-Chlorobenzoyl)imino-5-ethyl-3-[2'-(1H-tetrazol-5-yl)biphenyl-4-yl]methyl-1,3,4-thiadiazoline]
[2]
  IC50: 0.0057 µM

## CCc1nn(Cc2ccc(-c3ccccc3-c3nnn[nH]3)cc2)c(=NC(=O)c2cscc2C(=O)O)s1 [Compound No.143, 4-[[5-Ethyl-3-[2'-(1H-tetrazol-5-yl)biphenyl-4-yl]methyl-1,3,4-thiadiazoline-2-yliden]aminocarbonyl] thiophene-3-carboxylic acid]
[1]
  IC50: 0.00064 µM

## CCCCc1nn(Cc2ccc(-c3ccccc3-c3nnn[nH]3)cc2)c(=NC(=O)CC)s1 [Compound No.7, 2-Propionylimino-5-n-butyl-3-[2'-(1H-tetrazol-5-yl)biphenyl-4-yl]methyl-1,3,4-thiadiazoline]
[1]
  IC50: 0.021 µM
[2]
  IC50: 0.0068 µM

## O=C(O)c1ccccc1C(=O)N=c1sc(C2CC2)nn1Cc1ccc(-c2ccccc2-c2nnn[nH]2)cc1 [Compound No.137, N-[5-Cyclopropyl-3-[2'-(1H-tetrazol-5-yl)biphenyl-4-yl]methyl-1,3,4-thiadiazoline-2-yliden]phthalamic acid]
[1]
  IC50: 0.0009 µM

## CCCC(=O)N(Cc1ccc(-c2ccccc2-c2nn[nH]n2)cc1)c1nnc(C2CC2)s1 [Compound No.12, 2-[N-Butyryl-N-(2'-(1H-tetrazol-5-yl)biphenyl-4-yl)methyl]amino-5-cyclopropyl-1,3,4-thiadiazole]
[1]
  IC50: 0.028 µM
[2]
  IC50: 0.032 µM

## CCc1nn(Cc2ccc(-c3ccccc3-c3nnn[nH]3)cc2)c(=NC(=O)C2CC2)s1 [Compound No.19, 2-Cyclopropylcarbonylimino-5-ethyl-3-[2'-(1H-tetrazol-5-yl)biphenyl-4-yl]methyl-1,3,4-thiadiazoline]
[2]
  IC50: 0.015 µM

## CCc1nn(Cc2ccc(-c3ccccc3-c3nnn[nH]3)cc2)c(=NC(=O)c2c(F)ccc(F)c2C(=O)O)s1 [Compound No.139, 3,6-Difluoro-N-[5-Ethyl-3-[2'-(1H-tetrazol-5-yl)biphenyl-4-yl]methyl-1,3,4-thiadiazoline-2-yliden] phthalamic acid]
[1]
  IC50: 0.0074 µM

## CCc1nn(Cc2ccc(-c3ccccc3-c3nnn[nH]3)cc2)c(=NS(=O)(=O)c2ccccc2C(=O)OC)s1 [Compound No.151, 2-[[5-Ethyl-3-[2'-(1H-tetrazol-5-yl)biphenyl-4-yl]methyl-1,3,4-thiadiazoline-2-yliden]aminosulfonyl]benzoic acid methyl ester]
[1]
  IC50: 0.0008 µM

## O=C(O)C1=C(C(=O)N=c2sc(C3CC3)nn2Cc2ccc(-c3ccccc3-c3nn[nH]n3)cc2)CCC1 [Compound No.132, 2-[[5-Cyclopropyl-3-[2'-(1H-tetrazol-5-yl)biphenyl-4-yl]methyl-1,3,4-thiadiazoline-2-yliden]aminocarbonyl]-1-cyclopetenecarboxylic acid]
[1]
  IC50: 0.0004 µM

## CCc1nn(Cc2ccc(-c3ccccc3-c3nnn[nH]3)cc2)c(=NC(=O)C(F)(F)F)s1 [Compound No.50, 2-Trifluoroacetylimino-5-ethyl-3-[2'-(1H-tetrazol-5-yl)biphenyl-4-yl]methyl-1,3,4-thiadiazoline]
[1]
  IC50: 0.0049 µM

## CCCc1sc(=NC(=O)C2CC2)n(Cc2ccc(-c3ccccc3-c3nnn[nH]3)cc2)c1C(=O)O [Compound No.244, 2-Cyclopropylcarbonylimino-3-[2'-(1H-tetrazol-5-yl)biphenyl-4-yl]methyl-5-n-propylthiazoline-4-carboxylic acid]
[1]
  IC50: 0.00076 µM

## CCCCC(=O)N(Cc1ccc(-c2ccccc2-c2nn[nH]n2)cc1)c1nnc(C2CC2)s1 [Compound No.34, 2-[N-Valeryl-N-(2'-(1H-tetrazol-5-yl)biphenyl-4-yl)methyl]amino-5-cyclopropyl-1,3,4-thiadiazole]
[2]
  IC50: 0.01 µM

## O=C(N=c1sc(C2CC2)nn1Cc1ccc(-c2ccccc2-c2nn[nH]n2)cc1)C1CC1 [Compound No.23, 2-Cyclopropylcarbonylimino-5-cyclopropyl-3-[2'-(1H-tetrtazol-5-yl)biphenyl-4-yl]methyl-1,3,4-thiadiazoline]
[2]
  IC50: 0.031 µM

## CCCCC(=O)N(Cc1ccc(-c2ccccc2-c2nn[nH]n2)cc1)c1nnc(C)s1 [Compound No.30, 2-[N-Valeryl-N-(2'-(1H-tetrazol-5-yl)biphenyl-4-yl)methyl]amino-5-methyl-1,3,4-thiadiazole]
[1]
  IC50: 0.029 µM

## CCCc1nn(Cc2ccc(-c3ccccc3-c3nnn[nH]3)cc2)c(=NC(=O)C2=C(C(=O)O)CCC2)s1 [Compound No.131, 2-[[5-n-Propyl-3-[2'-(1H-tetrazol-5-yl)biphenyl-4-yl]methyl-1,3,4-thiadiazoline-2-yliden]aminocarbonyl]-1-cyclopenten carboxylic acid]
[1]
  IC50: 0.00084 µM

## CCCCc1nn(Cc2ccc(-c3ccccc3-c3nnn[nH]3)cc2)c(=NC(=O)CCC)s1 [Compound No.13, 2-Butyrylimino-5-n-butyl-3-[2'-(1H-tetrazol-5-yl)biphenyl-4-yl]methyl-1,3,4-thiadiazoline]
[1]
  IC50: 0.024 µM
[2]
  IC50: 0.014 µM

## CCCCc1sc(=NC(=O)C2CC2)n(Cc2ccc(-c3ccccc3-c3nnn[nH]3)cc2)c1C(=O)O [Compound No.245, 2-Cyclopropylcarbonylimino-3-[2'-(1H-tetrazol-5-yl)biphenyl-4-yl]methyl-5-n-butylthiazoline-4-carboxylic acid]
[1]
  IC50: 0.00035 µM

## CCCC(=O)N(Cc1ccc(-c2ccccc2-c2nn[nH]n2)cc1)c1nnc(CC)s1 [Compound No.2, 2-[N-Butyryl-N-(2'-(1H-tetrazol-5-yl)biphenyl-4-yl)methyl]amino-5-ethyl-1,3,4-thiadiazole]
[1]
  IC50: 0.011 µM
[2]
  IC50: 0.013 µM

## CCCC(=O)N=c1sc(C2CC2)nn1Cc1ccc(-c2ccccc2-c2nnn[nH]2)cc1 [Compound No.11, 2-Butyrylimino-5-cyclopropyl-3-[2'-(1H-tetrazol-5-yl)biphenyl-4-yl]methyl-1,3,4-thiadiazoline]
[1]
  IC50: 0.026 µM
[2]
  IC50: 0.0065 µM

## CCCCC(=O)N=c1sc(CC)nn1Cc1ccc(-c2ccccc2-c2nnn[nH]2)cc1 [Compound No.31, 2-Valerylimino-5-ethyl-3-[2'-(1H-tetrazol-5-yl)biphenyl-4-yl]methyl-1,3,4-thiadiazoline]
[2]
  IC50: 0.017 µM

## CCCC(=O)N=c1sc(CC)nn1Cc1ccc(-c2ccccc2-c2nnn[nH]2)cc1 [Compound No.1, 2-Butyrylimino-5-ethyl-3-[2'-(1H-tetrazol-5-yl)biphenyl-4-yl]methyl-1,3,4-thiadiazoline]
[1]
  IC50: 0.023 µM
[2]
  IC50: 0.008 µM

## O=C(N=c1sc(-c2ccccc2)nn1Cc1ccc(-c2ccccc2-c2nnn[nH]2)cc1)C1CC1 [Compound No.27, 2-Cyclopropylcarbonylimino-5-phenyl-3-[2'-(1H-tetrazol-5-yl)biphenyl-4-yl]methyl-1,3,4-thiadiazoline]
[1]
  IC50: 0.01 µM
